The text below walks through data of patent US10112937B2, “P2X7 modulators and methods of use” (Janssen Pharmaceutica NV, priority 2013, dated 2018).

pIC50, pKi: −log10 of the molar value.

Experiment [1] deals with T1, human P2X7 (Homo sapiens (Human), UniProt Q99572). As to the kind of experiment: Radioligand binding ([3H]A-804598), human P2X7-1321N1 cell membranes.
Description: (§1) human or rat P2X7-1321N1 cells were collected and frozen @−80° C. On the day of the experiment, cell membrane preparations were made according to standard published methods. […] The assay was terminated by filtration (GF/B filters pre-soaked with 0.3% PEI) and washed with washing buffer (Tris-HCl 50 mM). The IC50 generated in the binding assay was corrected for tracer concentration and affinity of the tracer to derive at the affinity (Ki) of the test compounds. […] For analysis, each concentration point is averaged from triplicate values and the averaged values are plotted on Graphpad Prism.
Experiment [2] deals with T1, human P2X7. As to the kind of experiment: Ca2+ flux (FLIPR) in 1321N1 cells expressing recombinant human P2X7.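 Note: cells loaded with Calcium-4 dye, preincubated with test compound for 30 min, fluorescence change read 180 s after agonist addition.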 The format is cell-based. Background: Calcium flux is commonly read through the fluorescence of an indicator in the cells.
Description: P2X7 Antagonism in Recombinant Human P2X7 Cells or Recombinant Rat P2X7 Cells: (a) Ca^2+ Flux and (b) Radioligand Binding
1321N1 cells expressing the recombinant human or rat P2X7 channel was cultured in HyQ DME/(HyClone/Dulbecco's Modified Eagle Medium) high glucose supplemented with 10% Fetal Bovine Serum (FBS) and appropriate selection marker. Cells were seeded at a density of 25000 cells/well (96-well clear bottom black walled plates) in 100 μl volume/well. On the day of the experiment, cell plates were washed with assay buffer, containing (in mM): 130 NaCl, 2 KCl, 1 CaCl2, 1 MgCl2, 10 HEPES, 5 glucose; pH 7.40 and 300 mOs. After the wash, cells were loaded with the Calcium-4 dye (Molecular Device) and incubated in the dark for 60 minutes. Test compounds were prepared at 250× the test concentration in neat DMSO. Intermediate 96-well compound plates were prepared by transferring 1.2 μL of the compound into 300 μL of assay buffer. A further 3× dilution occurred when transferring 50 μL/well of the compound plate to 100 μL/well in the cell plate. Cells were incubated with test compounds and dye for 30 minutes. […] The fluorescence change was measured 180 seconds after adding the agonist.
Experiment [3] addresses T2, rat P2X7 (Rattus norvegicus (Rat), UniProt Q64663). As to the kind of experiment: Ca2+ flux (FLIPR) in 1321N1 cells expressing recombinant rat P2X7.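 Note: Calcium-4 dye fluorescence change read 180 s after agonist addition, with cells preincubated 30 min with compound and dye in 96-well plates.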 The format is cell-based.
In experiment [4] the target is T1, human P2X7. As to the kind of experiment: P2X7 antagonism in human PBMCs (IL-1β release after LPS + Bz-ATP, ELISA). It is filed as cell-based.
For experiment [5], the target named is T2, rat P2X7. As to the kind of experiment: Radioligand binding ([3H]A-804598), rat P2X7-1321N1 cell membranes. Particulars: rat P2X7-1321N1 membranes, tritiated A-804598.
Description: as §1
Where [6] appears, read: human P2X7-1321N1 membranes, tritiated A-804598.
Setting [7] is: 1321N1 cells, recombinant human P2X7, 250 μM BzATP.
[8] abbreviates: 1321N1 cells, recombinant rat P2X7, 250 μM BzATP.
[9] abbreviates: human PBMCs, test compound 10 μM.
Where [10] appears, read: [3H]A-804598, human P2X7-1321N1 membranes.
Setting [11] is: Ca2+ flux, 250 μM BzATP, human P2X7 1321N1 cells.
[12] abbreviates: 10 μM test compound, human PBMCs, LPS + Bz-ATP.
Where [13] appears, read: Ca2+ flux, 250 μM BzATP, rat P2X7 1321N1 cells.

T2 sequence (Q64663 whole entry): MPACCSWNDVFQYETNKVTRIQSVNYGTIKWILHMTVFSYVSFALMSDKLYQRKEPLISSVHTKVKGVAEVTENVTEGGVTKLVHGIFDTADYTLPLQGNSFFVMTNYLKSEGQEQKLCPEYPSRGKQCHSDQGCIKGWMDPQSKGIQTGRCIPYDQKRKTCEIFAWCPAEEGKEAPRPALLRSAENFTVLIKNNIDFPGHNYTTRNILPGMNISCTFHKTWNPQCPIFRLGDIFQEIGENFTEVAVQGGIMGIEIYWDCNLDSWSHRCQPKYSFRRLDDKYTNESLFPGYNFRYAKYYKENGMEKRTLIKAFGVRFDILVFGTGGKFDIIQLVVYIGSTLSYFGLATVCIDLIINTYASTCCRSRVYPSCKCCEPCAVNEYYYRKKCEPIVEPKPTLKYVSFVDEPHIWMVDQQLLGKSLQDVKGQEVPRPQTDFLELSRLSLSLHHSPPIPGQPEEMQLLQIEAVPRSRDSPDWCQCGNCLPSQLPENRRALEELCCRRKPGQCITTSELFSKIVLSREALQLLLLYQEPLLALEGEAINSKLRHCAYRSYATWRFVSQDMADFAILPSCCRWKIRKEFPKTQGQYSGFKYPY
T1 sequence (Q99572 whole entry): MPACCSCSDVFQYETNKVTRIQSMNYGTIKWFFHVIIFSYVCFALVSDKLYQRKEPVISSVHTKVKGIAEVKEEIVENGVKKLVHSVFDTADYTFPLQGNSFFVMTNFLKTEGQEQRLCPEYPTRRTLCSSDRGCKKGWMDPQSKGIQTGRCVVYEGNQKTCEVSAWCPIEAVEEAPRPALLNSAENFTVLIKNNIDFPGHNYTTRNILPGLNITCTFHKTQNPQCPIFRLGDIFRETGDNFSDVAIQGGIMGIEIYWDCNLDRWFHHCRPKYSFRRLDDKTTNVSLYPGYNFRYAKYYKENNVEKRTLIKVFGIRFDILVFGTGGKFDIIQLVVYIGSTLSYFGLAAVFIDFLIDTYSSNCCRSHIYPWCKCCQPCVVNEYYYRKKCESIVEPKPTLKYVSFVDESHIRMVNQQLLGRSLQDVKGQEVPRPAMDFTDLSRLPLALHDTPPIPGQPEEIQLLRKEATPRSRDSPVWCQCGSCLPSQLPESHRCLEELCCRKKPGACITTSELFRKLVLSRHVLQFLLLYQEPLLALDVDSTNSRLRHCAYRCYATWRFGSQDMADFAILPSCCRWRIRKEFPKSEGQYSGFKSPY

In general, pKi refers to −log10 of the Ki, conventionally taken in molar units. Read a low pKi as a large Ki. In general, pIC50 refers to the negative decadic logarithm of the IC50, by convention in mol/L. On to `Cc1c(C(=O)N2Cc3nnn(-c4ccn[nH]4)c3C[C@H]2C)cccc1C(F)(F)F` (single isomer, unassigned) [Example 346, (R*)-(6-methyl-1-(1H-pyrazol-3-yl)-6,7-dihydro-1H-[1,2,3]triazolo[4,5-c]pyridin-5(4H)-yl)(2-methyl-3-(trifluoromethyl)phenyl)methanone], for which the pKi at human P2X7 [1] (setting [6]) is 8.00. For the same compound, the pIC50 on human P2X7 [2] (setting [7]) was 8.19; at rat P2X7 [3] (setting [8]), 8.66. The “PBMC 10 μM (% control)” value on human P2X7 [4] (setting [9]) is recorded as −2.3 % control.
For the compound `Cc1cc(-n2nnc3c2CCN(C(=O)c2ccnc(C(F)(F)F)c2F)[C@@H]3C)ncc1F` (single isomer, unassigned) [Example 368, (R*)-(3-fluoro-2-(trifluoromethyl)pyridin-4-yl)(1-(5-fluoro-4-methylpyridin-2-yl)-4-methyl-6,7-dihydro-1H-[1,2,3]triazolo[4,5-c]pyridin-5(4H)-yl)methanone], the pKi on human P2X7 [1] (setting [6]) is 7.40. For the same compound, the pIC50 on human P2X7 [2] (setting [7]) was 7.65; at rat P2X7 [3] (setting [8]), 6.63. On human P2X7 [4] (setting [9]), the “PBMC 10 μM (% control)” value is on record as −2.3 % control.
Regarding `C[C@@H]1c2nnn(-c3cccc(C(F)(F)F)n3)c2CCN1C(=O)c1cccc(C(F)(F)F)c1Cl` (single isomer, unassigned) [Example 379, (R*)-(2-chloro-3-(trifluoromethyl)phenyl)(4-methyl-1-(6-(trifluoromethyl)pyridin-2-yl)-6,7-dihydro-1H-[1,2,3]triazolo[4,5-c]pyridin-5(4H)yl)methanone], on human P2X7 [1] (setting [6]), the pKi is 6.70. The pIC50 on human P2X7 [2] (setting [7]) is 6.95; at rat P2X7 [3] (setting [8]), 7.32. Moreover, on human P2X7 [4] (setting [9]), the “PBMC 10 μM (% control)” value amounted to 3.8 % control.
`CC1c2n[nH]c(-c3ccc(F)cc3)c2CCN1C(=O)c1cccc(Cl)c1Cl` (stereo not shown) [Example 435, (2,3-dichlorophenyl)(3-(4-fluorophenyl)-7-methyl-4,5-dihydro-2H-pyrazolo[3,4-c]pyridin-6(7H)-yl)methanone] showed a pKi on human P2X7 [1] (setting [10]) of 7.00. At human P2X7 [2] (setting [11]), the pIC50 was 7.23. For the same compound, the “PBMC 10 μM (% control)” value on human P2X7 [4] (setting [12]) is −11.3 % control.
The compound `CC1c2nnn(-c3ncc[nH]3)c2CCN1C(=O)c1cccc(C(F)(F)F)c1Cl` (stereo not shown) [Example 393, (1-(1H-imidazol-2-yl)-4-methyl-6,7-dihydro-1H-[1,2,3]triazolo[4,5-c]pyridin-5(4H)-yl)(2-chloro-3-(trifluoromethyl)phenyl)methanone] gave a pKi on human P2X7 [1] (setting [6]) of 7.05. The pIC50 on human P2X7 [2] (setting [7]) was 7.29; at rat P2X7 [3] (setting [8]), 4.96. The “PBMC 10 μM (% control)” value at human P2X7 [4] (setting [9]) was determined as 8.5 % control.
`CC1c2n[nH]c(-c3ccccn3)c2CCN1C(=O)c1cccc(C(F)(F)F)c1Cl` (stereo not shown) [Example 432, (2-chloro-3-(trifluoromethyl)phenyl)(7-methyl-3-(pyridin-2-yl)-4,5-dihydro-2H-pyrazolo[3,4-c]pyridin-6(7H)-yl)methanone] gave a pKi at human P2X7 [1] (setting [10]) of 7.80. Also, the pIC50 at rat P2X7 [3] (setting [13]) is 7.48. In addition, on human P2X7 [4] (setting [12]), the “PBMC 10 μM (% control)” value is on record as 0.3 % control.
As for `C[C@@H]1c2nnn(-c3ncccn3)c2CCN1C(=O)c1cccc(C(F)(F)F)c1F` (single isomer, unassigned) [Example 271, (R*)-(2-fluoro-3-(trifluoromethyl)phenyl)(4-methyl-1-(pyrimidin-2-yl)-6,7-dihydro-1H-[1,2,3]triazolo[4,5-c]pyridin-5(4H)-yl)methanone], the negative-log IC50 (pIC50) on human P2X7 [2] (setting [7]) was 8.77; at rat P2X7 [3] (setting [8]), 7.70. Besides, the negative-log Ki (pKi) on rat P2X7 [5] was 8.80. Also, the “PBMC 10 μM (% control)” value on human P2X7 [4] (setting [9]) is listed as 14.3 % control; at human P2X7 [4] (test compound 10 μM, LPS 30 ng/ml + 0.5 mM Bz-ATP), −3.7 % control.
In turn, `C[C@H]1Cc2c(nnn2-c2ncc(F)cn2)CN1C(=O)c1ccc(Cl)cc1F` [Example 156, (S)-(4-chloro-2-fluorophenyl)(1-(5-fluoropyrimidin-2-yl)-6-methyl-6,7-dihydro-1H-[1,2,3]triazolo[4,5-c]pyridin-5(4H)-yl)methanone] gave a negative-log Ki (pKi) at human P2X7 [1] (setting [6]) of 8.20. At human P2X7 [4] (setting [9]), the “PBMC 10 μM (% control)” value is listed as 1.8 % control.
As for `Cc1cc(-n2nnc3c2CCN(C(=O)c2ccnc(C(F)(F)F)c2Cl)C3C)ncc1F` (stereo not shown) [Example 370, (3-chloro-2-(trifluoromethyl)pyridin-4-yl)(1-(5-fluoro-4-methylpyridin-2-yl)-4-methyl-6,7-dihydro-1H-[1,2,3]triazolo[4,5-c]pyridin-5(4H)-yl)methanone], the negative logarithm of the Ki (pKi) at human P2X7 [1] (setting [6]) was 7.20. Besides, the pIC50 at human P2X7 [2] (setting [7]) is 7.22; at rat P2X7 [3] (setting [8]), 6.59. In addition, the “PBMC 10 μM (% control)” value on human P2X7 [4] (setting [9]) is listed as −2.2 % control.
The compound `CC1c2nnn(-c3cccc(C(F)(F)F)n3)c2CCN1C(=O)c1cccc(C(F)(F)F)c1Cl` (stereo not shown) [Example 378, (2-chloro-3-(trifluoromethyl)phenyl)(4-methyl-1-(6-(trifluoromethyl)pyridin-2-yl)-6,7-dihydro-1H-[1,2,3]triazolo[4,5-c]pyridin-5(4H)-yl)methanone] had a pKi on human P2X7 [1] (setting [6]) of 6.80. Moreover, the pIC50 at human P2X7 [2] (setting [7]) was 7.10; on rat P2X7 [3] (setting [8]), 6.86. Besides, the “PBMC 10 μM (% control)” value at human P2X7 [4] (setting [9]) is reported as −0.1 % control.
For `CC1c2n[nH]c(-c3ccc(F)cc3)c2CCN1C(=O)c1cccc(C(F)(F)F)c1Cl` (stereo not shown) [Example 434, (2-chloro-3-(trifluoromethyl)phenyl)(3-(4-fluorophenyl)-7-methyl-4,5-dihydro-2H-pyrazolo[3,4-c]pyridin-6(7H)-yl)methanone], on human P2X7 [1] (setting [10]), the pKi is 7.32. The figures for the pIC50 at human P2X7 [2] (setting [11]) and on rat P2X7 [3] (setting [13]) were 7.36 and 6.37, respectively. Also, on human P2X7 [4] (setting [12]), the “PBMC 10 μM (% control)” value was 3.1 % control.
As for `CC1c2n[nH]c(-c3ccc(F)cn3)c2CCN1C(=O)c1cccc(C(F)(F)F)c1Cl` (stereo not shown) [Example 430, (2-chloro-3-(trifluoromethyl)phenyl)(3-(5-fluoropyridin-2-yl)-7-methyl-4,5-dihydro-2H-pyrazolo[3,4-c]pyridin-6(7H)-yl)methanone], the pKi on human P2X7 [1] (setting [10]) was 7.44. The pIC50 was 7.15 at human P2X7 [2] (setting [11]) and 6.80 on rat P2X7 [3] (setting [13]). In addition, at human P2X7 [4] (setting [12]), the “PBMC 10 μM (% control)” value is −4.0 % control.
On human P2X7 [1] (setting [10]), `CC1c2n[nH]c(-c3ccnn3C)c2CCN1C(=O)c1cccc(C(F)(F)F)c1Cl` (stereo not shown) [Example 437, (2-chloro-3-(trifluoromethyl)phenyl)(7-methyl-3-(1-methyl-1H-pyrazol-5-yl)-4,5-dihydro-2H-pyrazolo[3,4-c]pyridin-6(7H)-yl)methanone] gave a pKi of 6.84. Also, the pIC50 on human P2X7 [2] (setting [11]) is 6.62; on rat P2X7 [3] (setting [13]), 4.84. Besides, the “PBMC 10 μM (% control)” value at human P2X7 [4] (setting [12]) was −11.7 % control.
In turn, `Cc1cc(-n2nnc3c2CCN(C(=O)c2ccnc(C(F)(F)F)c2F)C3C)ncc1F` (stereo not shown) [Example 367, (3-fluoro-2-(trifluoromethyl)pyridin-4-yl)(1-(5-fluoro-4-methylpyridin-2-yl)-4-methyl-6,7-dihydro-1H-[1,2,3]triazolo[4,5-c]pyridin-5(4H)-yl)methanone] gave a pKi on human P2X7 [1] (setting [6]) of 6.94. The pIC50 on human P2X7 [2] (setting [7]) is 7.12; on rat P2X7 [3] (setting [8]), 5.67. For the same compound, the “PBMC 10 μM (% control)” value at human P2X7 [4] (setting [9]) is 0.9 % control.
At human P2X7 [1] (setting [10]), `CC1c2n[nH]c(-c3ncccn3)c2CCN1C(=O)c1cccc(Cl)c1Cl` (stereo not shown) [Example 431, (2,3-dichlorophenyl)(7-methyl-3-(pyrimidin-2-yl)-4,5-dihydro-2H-pyrazolo[3,4-c]pyridin-6(7H)-yl)methanone] gave a pKi of 7.91. Also, the figures for the pIC50 at human P2X7 [2] (setting [11]) and at rat P2X7 [3] (setting [13]) were 8.22 and 6.49, respectively. In addition, at human P2X7 [4] (setting [12]), the “PBMC 10 μM (% control)” value is on record as −6.4 % control.
The compound `C[C@H]1Cc2c(nnn2-c2ccn[nH]2)CN1C(=O)c1cccc(C(F)(F)F)c1F` (single isomer, unassigned) [Example 349, (S*)-(2-fluoro-3-(trifluoromethyl)phenyl)(6-methyl-1-(1H-pyrazol-5-yl)-6,7-dihydro-1H-[1,2,3]triazolo[4,5-c]pyridin-5(4H)-yl)methanone] showed a negative-log Ki (pKi) at human P2X7 [1] (setting [6]) of 8.10. The pIC50 on human P2X7 [2] (setting [7]) is 8.57; at rat P2X7 [3] (setting [8]), 8.66. The “PBMC 10 μM (% control)” value on human P2X7 [4] (setting [9]) came to 0.7 % control.
In the case of `Cc1c(C(=O)N2Cc3nnn(-c4cc[nH]n4)c3CC2C)cccc1C(F)(F)F` (stereo not shown) [Example 154, (6-methyl-1-(1H-pyrazol-3-yl)-6,7-dihydro-1H-[1,2,3]triazolo[4,5-c]pyridin-5(4H)-yl)(2-methyl-3-(trifluoromethyl)phenyl)methanone], the negative logarithm of the Ki (pKi) on human P2X7 [1] (setting [6]) was 8.10. Further, the “PBMC 10 μM (% control)” value at human P2X7 [4] (setting [9]) is on record as −0.6 % control.
In turn, `Cc1ccnc(-n2nnc3c2CCN(C(=O)c2cccc(Cl)c2Cl)[C@H]3C)n1` (single isomer, unassigned) [Example 392, (S*)-(2,3-dichlorophenyl)(4-methyl-1-(4-methylpyrimidin-2-yl)-6,7-dihydro-1H-[1,2,3]triazolo[4,5-c]pyridin-5(4H)-yl)methanone] gave a pKi on human P2X7 [1] (setting [6]) of 8.40. The pIC50 is 8.44 on human P2X7 [2] (setting [7]) and 7.33 on rat P2X7 [3] (setting [8]). Moreover, at human P2X7 [4] (setting [9]), the “PBMC 10 μM (% control)” value worked out at 14.4 % control.
Consider `Cc1nccc(-n2nnc3c2CCN(C(=O)c2ccnc(C(F)(F)F)c2Cl)C3C)n1` (stereo not shown) [Example 399, (3-chloro-2-(trifluoromethyl)pyridin-4-yl)(4-methyl-1-(2-methylpyrimidin-4-yl)-6,7-dihydro-1H-[1,2,3]triazolo[4,5-c]pyridin-5(4H)-yl)methanone], for which the pIC50 at human P2X7 [2] (setting [7]) is 5.76; on rat P2X7 [3] (setting [8]), under 5.00. Further, the “PBMC 10 μM (% control)” value on human P2X7 [4] (setting [9]) is reported as 1.1 % control.
Compound `CC1c2n[nH]c(-c3cnccn3)c2CCN1C(=O)c1cccc(Cl)c1Cl` (stereo not shown) [Example 433, (2,3-dichlorophenyl)(7-methyl-3-(pyrazin-2-yl)-4,5-dihydro-2H-pyrazolo[3,4-c]pyridin-6(7H)-yl)methanone] had a pKi at human P2X7 [1] (setting [10]) of 7.80. Further, the pIC50 at human P2X7 [2] (setting [11]) is 7.72. In addition, the “PBMC 10 μM (% control)” value on human P2X7 [4] (setting [12]) is listed as −3.6 % control.
